Experimental data taken from US6472418B1, “Non-peptide NK1 receptors antagonists” (Warner-Lambert Company, priority 1998, dated 2002).

The compounds below were run against T1, Human NK1 Receptor (Homo sapiens, UniProt P25103) (assay: In Vitro Human NK1 Receptor Binding Assay ([125I]Bolton-Hunter substance P displacement, IM9 cells)). Conditions: Human lymphoma IM9 cells, [125I]Bolton-Hunter substance P; Table 3, array-synthesis products; read-out: IC50 (nM) hNK1.
T1 construct: endogenous in cells; host or cells: Human lymphoma IM9 cells (whole cells)
T1 sequence (P25103 whole entry): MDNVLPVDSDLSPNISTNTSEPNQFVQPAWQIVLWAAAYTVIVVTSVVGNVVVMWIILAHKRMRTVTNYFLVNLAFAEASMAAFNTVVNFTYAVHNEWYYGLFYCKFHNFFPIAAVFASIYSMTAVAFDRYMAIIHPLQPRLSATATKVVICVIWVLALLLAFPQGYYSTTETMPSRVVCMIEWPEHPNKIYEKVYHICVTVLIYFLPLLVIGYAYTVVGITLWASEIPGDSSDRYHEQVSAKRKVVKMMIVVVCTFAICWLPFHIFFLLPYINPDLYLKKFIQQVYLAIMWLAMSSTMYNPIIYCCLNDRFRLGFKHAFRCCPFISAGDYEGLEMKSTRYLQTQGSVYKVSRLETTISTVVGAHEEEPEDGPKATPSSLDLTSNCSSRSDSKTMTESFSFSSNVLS
In short: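 Radioligand displacement on whole IM9 human lymphoma cells (2.5×10^6 cells/mL) using [125I]Bolton-Hunter substance P (0.05-0.1 nM), 50 min at 21° C in Tris pH 7.4/MnCl2 buffer with protease inhibitors. Non-specific binding defined by […] [Sar9, Met(O2)11] substance P. Filtration, gamma counting, iterative curve fitting.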

Row | IC50 [nM] | Structure (SMILES)
1 | 731 | O=C(NCc1cccc(O)c1)C(Cc1c[nH]c2ccccc12)NCc1cc2ccccc2o1 (stereo not shown) [Example 308, 2-[(Benzofuran-2-ylmethyl)-amino]-N-(3-hydroxy-benzyl)-3-(1H-indol-3-yl)-propionamide]
2 | 243 | O=C(NC1Cc2ccccc2C1)C(Cc1c[nH]c2ccccc12)NCc1cc2ccccc2o1 (stereo not shown) [Example 239, 2-[(Benzofuran-2-ylmethyl)-amino]-N-indan-2-yl-3-(1H-indol-3-yl)-propionamide]
3 | 53 | O=C(NCc1ccc(F)cc1F)C(Cc1c[nH]c2ccccc12)NCc1cc2ccccc2o1 (stereo not shown) [Example 301, 2-[(Benzofuran-2-ylmethyl)-amino]-N-(2,4-difluoro-benzyl)-3-(1H-indol-3-yl)-propionamide]
4 | 62 | O=C(NCCc1ccc(F)cc1)C(Cc1c[nH]c2ccccc12)NCc1cc2ccccc2o1 (stereo not shown) [Example 284, 2-[(Benzofuran-2-ylmethyl)-amino]-N-[2-(4-fluoro-phenyl)-ethyl]-3-(1H-indol-3-yl)-propionamide]
5 | 5340 | O=C(CNC(=O)C(Cc1c[nH]c2ccccc12)NCc1cc2ccccc2o1)c1ccccc1 (stereo not shown) [Example 237, 2-[(Benzofuran-2-ylmethyl)-amino]-3-(1H-indol-3-yl)-N-(2-oxo-2-phenyl-ethyl)-propionamide]
6 | 196 | O=C(NCc1ccncc1)C(Cc1c[nH]c2ccccc12)NCc1cc2ccccc2o1 (stereo not shown) [Example 240]

Same assay, conditions: Table 4; [125I]Bolton-Hunter substance P displacement, human IM9 cells; read-out: IC50 (nM) hNK1

Row | IC50 [nM] | Structure (SMILES)
7 | 141 | CC(NC(=O)C(C)(Cc1c[nH]c2ccccc12)NCc1ccco1)c1ccccc1 (stereo not shown) [compound 314, 2-[(Furan-2-ylmethyl)-amino]-3-(1H-indol-3-yl)-2-methyl-N-(1-phenyl-ethyl)-propionamide]
8 | 1100 | CNS(=O)(=O)c1cc(Cl)ccc1CNC(C)(Cc1c[nH]c2ccccc12)C(=O)NC(C)c1ccccc1 (stereo not shown) [compound 330, 2-(4-Chloro-2-methylsulfamoyl-benzylamino)-3-(1H-indol-3-yl)-2-methyl-N-(1-phenyl-ethyl)-propionamide]

Same assay, conditions: Table 5; [125I]Bolton-Hunter substance P displacement, human IM9 cells; read-out: IC50 (nM) hNK1

Row | IC50 [nM] | Structure (SMILES)
9 | 2240 | CC(NC(=O)C(Cc1c[nH]c2ccccc12)NCc1ccc(N2CCOCC2)cc1Cl)c1ccccc1 (stereo not shown) [compound 368]
10 | 1250 | CC(NC(=O)C(Cc1c[nH]c2ccccc12)NCc1ccc(OCCCC(C)(C)C(=O)O)cc1)c1ccccc1 (stereo not shown) [compound 364]
11 | 4050 | CC(C)C=CCC1=CCC(CNC(Cc2c[nH]c3ccccc23)C(=O)NC(C)c2ccccc2)CC1 (stereo not shown) [compound 366]

Same assay, conditions: human NK1 receptor, IM9 cells, [125I]Bolton-Hunter substance P; read-out: IC50 (nM) hNK1

Row | Structure (SMILES) | IC50 [nM]
12 | CC(Cc1c[nH]c2ccccc12)(NCc1cc2ccccc2o1)C(=O)NCC1CCCCC1O (stereo not shown) [compound 184, 2-[(Benzofuran-2-ylmethyl)-amino]-N-(2-hydroxy-cyclohexylmethyl)-3-(1H-indol-3-yl)-2-methyl-propionamide] | > 10000
13 | CN(C)CCNC(=O)C(C)(Cc1c[nH]c2ccccc12)NCc1cc2ccccc2o1 (stereo not shown) [compound 83, 2-[(Benzofuran-2-ylmethyl)-amino]-N-(2-dimethylamino-ethyl)-3-(1H-indol-3-yl)-2-methyl-propionamide] | 3520
14 | CC(Cc1c[nH]c2ccccc12)(NCc1cc2ccccc2o1)C(=O)NCc1ccc(Cl)cc1Cl (stereo not shown) [compound 46, 2-[(Benzofuran-2-ylmethyl)-amino]-N-(2,4-dichloro-benzyl)-3-(1H-indol-3-yl)-2-methyl-propionamide] | 1560
15 | CC(Cc1c[nH]c2ccccc12)(NCc1cc2ccccc2o1)C(=O)NCCN1CCOC1=O (stereo not shown) [compound 96, 2-[(Benzofuran-2-ylmethyl)-amino]-3-(1H-indol-3-yl)-2-methyl-N-[2-(2-oxo-oxazolidin-3-yl)-ethyl]-propionamide] | > 10000
16 | COc1ccc(CNC(=O)C(C)(Cc2c[nH]c3ccccc23)NCc2cc3ccccc3o2)cc1 (stereo not shown) [compound 68, 2-[(Benzofuran-2-ylmethyl)-amino]-3-(1H-indol-3-yl)-N-(4-methoxy-benzyl)-2-methyl-propionamide] | 312
17 | CC(NC(=O)C(C)(Cc1c[nH]c2ccccc12)NCc1cc2ccccc2o1)c1ccc(F)cc1 (stereo not shown) [compound 33, 2-[(Benzofuran-2-ylmethyl)-amino]-N-[1-(4-fluoro-phenyl)-ethyl]-3-(1H-indol-3-yl)-2-methyl-propionamide] | 9
18 | CC(Cc1c[nH]c2ccccc12)(NCc1cc2ccccc2o1)C(=O)NCc1ccncc1 (stereo not shown) [compound 25, 2-[(Benzofuran-2-ylmethyl)-amino]-3-(1H-indol-3-yl)-2-methyl-N-pyridin-4-ylmethyl-propionamide] | 131
19 | CC1(CNC(=O)C(C)(Cc2c[nH]c3ccccc23)NCc2cc3ccccc3o2)OCCO1 (stereo not shown) [compound 126, 2-[(Benzofuran-2-ylmethyl)-amino]-3-(1H-indol-3-yl)-2-methyl-N-(2-methyl-[1,3]dioxolan-2-ylmethyl)-propionamide] | 6790
20 | CC(Cc1c[nH]c2ccccc12)(NCc1cc2ccccc2o1)C(=O)NC12CN3CN(CN(C3)C1)C2 (stereo not shown) [compound 78, 2-[(Benzofuran-2-ylmethyl)-amino]-3-(1H-indol-3-yl)-2-methyl-N-(1,3,5-triaza-tricyclo[3.3.1.1>3,7]-dec-7-yl)-propionamide] | > 10000
21 | CC(Cc1c[nH]c2ccccc12)(NCc1cc2ccccc2o1)C(=O)NCC1CCCO1 (stereo not shown) [compound 138, 2-[(Benzofuran-2-ylmethyl)-amino]-3-(1H-indol-3-yl)-2-methyl-N-(tetrahydro-furan-2-ylmethyl)-propionamide] | 4870
22 | CC(Cc1c[nH]c2ccccc12)(NCc1cc2ccccc2o1)C(=O)NC1CCCCC1 (stereo not shown) [compound 26, 2-[(Benzofuran-2-ylmethyl)-amino]-N-cyclohexyl-3-(1H-indol-3-yl)-2-methyl-propionamide] | 1010
23 | CC1CCCC(C)N1CCCCNC(=O)C(C)(Cc1c[nH]c2ccccc12)NCc1cc2ccccc2o1 (stereo not shown) [compound 88, 2-[(Benzofuran-2-ylmethyl)-amino]-N-[4-(2,6-dimethyl-piperidin-1-yl)-butyl]-3-(1H-indol-3-yl)-2-methyl-propionamide] | > 10000
24 | CC(NC(=O)C(C)(Cc1c[nH]c2ccccc12)NCc1cc2ccccc2o1)c1ccc([N+](=O)[O-])cc1 (stereo not shown) [compound 34, 2-[(Benzofuran-2-ylmethyl)-amino]-3-(1H-indol-3-yl)-2-methyl-N-[1-(4-nitro-phenyl)-ethyl]-propionamide] | 14

The next lines start with the values.

Row | IC50 [nM] | Structure (SMILES)
25 | 455 | Cc1ccccc1CNC(=O)C(C)(Cc1c[nH]c2ccccc12)NCc1cc2ccccc2o1 (stereo not shown) [compound 157, 2-[(Benzofuran-2-ylmethyl)-amino]-3-(1H-indol-3-yl)-2-methyl-N-(2-methyl-benzyl)-propionamide]
26 | 1760 | COC(=O)C(Cc1c[nH]cn1)NC(=O)C(C)(Cc1c[nH]c2ccccc12)NCc1cc2ccccc2o1 (stereo not shown) [compound 176, 2-[2-[(Benzofuran-2-ylmethyl)-amino]-3-(1H-indol-3-yl)-2-methyl-propionylamino]-3-(1H-imidazol-4-yl)-propionic acid methyl ester]
27 | 2340 | CC(Cc1c[nH]c2ccccc12)(NCc1cc2ccccc2o1)C(=O)NCc1ccc(N)c2ccccc12 (stereo not shown) [compound 141, N-(4-Amino-naphthalen-1-ylmethyl)-2-[(benzofuran-2-ylmethyl)-amino]-3-(1H-indol-3-yl)-2-methyl-propionamide]
28 | 131 | COc1ccc(CNC(=O)C(C)(Cc2c[nH]c3ccccc23)NCc2cc3ccccc3o2)cc1F (stereo not shown) [compound 187, 2-[(Benzofuran-2-ylmethyl)-amino]-N-(3-fluoro-4-methoxy-benzyl)-3-(1H-indol-3-yl)-2-methyl-propionamide]
